{"source": "paper PMC9712021", "about": "(Advances in Pharmacological and Pharmaceutical Sciences, 2022)", "key": {"[1]": {"system": "S. cerevisiae EG (Sod1∆Cat1∆)", "experiment": "S. cerevisiae central disc test, oxidative damage, strain Sod1∆Cat1∆", "format": "cell-based, Saccharomyces cerevisiae", "from_the_text": "(§1) The central disc test was done according to the method presented by Islam et al.. Superoxide dismutase (CuZnSOD-Sod1) is a cytosolic enzyme that is faulty in strain EG118, whereas mitochondrial SOD is faulty in strain EG110 (MnSOD-Sod2). The strain EG133 has both Sod1 and Sod2 defects, while EG223 has a cytosolic catalase deficiency (Cat1). While EG103 is a competent strain that is identical to the wild-type (SODWT), EG is a dual isogenic strain for the Sod1 and Cat1 genes."}, "[2]": {"system": "S. cerevisiae EG118 (Sod1∆)", "experiment": "S. cerevisiae central disc test, oxidative damage, strain Sod1∆", "format": "cell-based, Saccharomyces cerevisiae", "from_the_text": "as §1"}, "[3]": {"system": "S. cerevisiae EG110 (Sod2∆)", "experiment": "S. cerevisiae central disc test, oxidative damage, strain Sod2∆", "format": "cell-based, Saccharomyces cerevisiae", "from_the_text": "as §1"}, "[4]": {"system": "S. cerevisiae EG103 (SODWT)", "experiment": "S. cerevisiae central disc test, oxidative damage, strain SODWT", "format": "cell-based, Saccharomyces cerevisiae", "from_the_text": "as §1"}, "[5]": {"system": "S. cerevisiae strains (SODWT, Sod1Δ, Sod2Δ, Cat1Δ, Sod1/Sod2Δ, Cat1Δ/Sod1Δ)", "experiment": "In vivo antioxidant (S. cerevisiae) test, all strains tested", "format": "cell-based, Saccharomyces cerevisiae", "from_the_text": "as §1"}, "[6]": {"experiment": "Hemolytic activity in mice erythrocytes", "format": "cell-based, Mus musculus", "conditions": "male, Swiss albino, mouse, 37°C, 2 h", "experimental": "(§2) This test was performed on adult Swiss albino mouse (Mus musculus) erythrocytes. The mouse was collected from the Central Animal House of the Federal University of Piaui, Brazil. It was allowed free access to standard food and water ad libitum and was kept under controlled lighting (12 h dark/light cycles) at 24 ± 2°C. Blood was collected from the retro-orbital plexus of the mouse (male, 24 gm body weight). Hemolytic activity in mouse erythrocytes was performed, according to Jamialahmadi et al.."}, "mouse erythrocytes": {"system": "mouse erythrocytes", "experiment": "Hemolytic activity in mice erythrocytes", "format": "cell-based", "conditions": "31.25–500 μg/mL", "experimental": "as §2"}, "[7]": {"system": "S. cerevisiae EG133 (Sod1∆Sod2∆)", "experiment": "S. cerevisiae central disc test, oxidative damage, strain Sod1∆Sod2∆", "format": "cell-based, Saccharomyces cerevisiae", "from_the_text": "as §1"}, "Artemia salina": {"system": "Artemia salina", "experiment": "Artemia salina bioassay (brine shrimp lethality bioassay)", "experimental": "This test was carried out with a slight modification, as described by Amaral et al.. Briefly, shrimp cysts were incubated in a small aquarium containing a brine solution (50 mg of cysts and 300 mL of brine) for 48 h with direct lighting. […] […] In the negative (NC) and positive (PC) control groups, saline solution and potassium dichromate (K2Cr2O7) were added, respectively. The concentration range used in the case of the PC group was 31.25 to 500 μg/mL."}, "[8]": {"system": "S. cerevisiae EG223 (Cat1∆)", "experiment": "S. cerevisiae central disc test, oxidative damage, strain Cat1∆", "format": "cell-based, Saccharomyces cerevisiae", "from_the_text": "as §1"}}, "data": [{"compound": "CC(C)CCCC(C)CCO", "note": "(stereo not shown) [3,7-Dimethyl-1-octanol, 3,7-dimethyl-1-octanol]", "values": [{"measurement": "oxidative damage", "setting": "[1]; 0.9 μg/mL", "value": "2.50 ± 0.70"}, {"measurement": "oxidative damage", "setting": "[1]; 1.8 μg/mL", "value": "3.00 ± 0.00"}, {"measurement": "oxidative damage", "setting": "[1]; 7.2 μg/mL", "value": "3.00 ± 1.41"}, {"measurement": "oxidative damage", "setting": "[1]; 14.4 μg/mL", "value": "2.00 ± 2.82"}, {"measurement": "oxidative damage", "setting": "[1]; 32 μg/mL", "value": "3.50 ± 0.70"}, {"measurement": "oxidative damage", "setting": "[1]; 64 μg/mL", "value": "3.00 ± 1.41"}, {"measurement": "oxidative damage", "setting": "[1]; 128 μg/mL", "value": "4.00 ± 1.41"}, {"measurement": "oxidative damage", "setting": "[1]; 256 μg/mL", "value": "3.00 ± 0.00"}, {"measurement": "oxidative damage", "setting": "[1]; 3.6 mg/mL", "value": "4.00 ± 1.41"}, {"measurement": "oxidative damage", "setting": "[1]; 500 mg/mL", "value": "3.50 ± 0.70"}, {"measurement": "oxidative damage", "setting": "[2]; 0.9 μg/mL", "value": "0.50 ± 0.70"}, {"measurement": "oxidative damage", "setting": "[2]; 1.8 μg/mL", "value": "0.00 ± 0.00"}, {"measurement": "oxidative damage", "setting": "[2]; 7.2 μg/mL", "value": "1.00 ± 0.00"}, {"measurement": "oxidative damage", "setting": "[2]; 14.4 μg/mL", "value": "1.00 ± 1.41"}, {"measurement": "oxidative damage", "setting": "[2]; 32 μg/mL", "value": "2.50 ± 0.70"}, {"measurement": "oxidative damage", "setting": "[2]; 64 μg/mL", "value": "3.00 ± 0.00"}, {"measurement": "oxidative damage", "setting": "[2]; 128 μg/mL", "value": "1.50 ± 0.70"}, {"measurement": "oxidative damage", "setting": "[2]; 3.6 mg/mL", "value": "1.50 ± 0.70"}, {"measurement": "oxidative damage", "setting": "[2]; 256 mg/mL", "value": "2.50 ± 0.70"}, {"measurement": "oxidative damage", "setting": "[2]; 500 mg/mL", "value": "3.00 ± 0.00"}, {"measurement": "oxidative damage", "setting": "[3]; 0.9 μg/mL", "value": "1.50 ± 0.70"}, {"measurement": "oxidative damage", "setting": "[3]; 1.8 μg/mL", "value": "2.00 ± 0.00"}, {"measurement": "oxidative damage", "setting": "[3]; 7.2 μg/mL", "value": "2.50 ± 0.70"}, {"measurement": "oxidative damage", "setting": "[3]; 14.4 μg/mL", "value": "1.50 ± 0.70"}, {"measurement": "oxidative damage", "setting": "[3]; 32 μg/mL", "value": "3.00 ± 0.00"}, {"measurement": "oxidative damage", "setting": "[3]; 64 μg/mL", "value": "1.00 ± 0.00"}, {"measurement": "oxidative damage", "setting": "[3]; 128 μg/mL", "value": "1.50 ± 0.70"}, {"measurement": "oxidative damage", "setting": "[3]; 3.6 mg/mL", "value": "2.50 ± 0.70"}, {"measurement": "oxidative damage", "setting": "[3]; 256 mg/mL", "value": "1.00 ± 1.41"}, {"measurement": "oxidative damage", "setting": "[3]; 500 mg/mL", "value": "2.50 ± 0.70"}, {"measurement": "oxidative damage", "setting": "[4]; 0.9 μg/mL", "value": "1.50 ± 0.70"}, {"measurement": "oxidative damage", "setting": "[4]; 1.8 μg/mL", "value": "1.50 ± 0.70"}, {"measurement": "oxidative damage", "setting": "[4]; 7.2 μg/mL", "value": "2.50 ± 0.70"}, {"measurement": "oxidative damage", "setting": "[4]; 14.4 μg/mL", "value": "2.00 ± 1.41"}, {"measurement": "oxidative damage", "setting": "[4]; 32 μg/mL", "value": "2.00 ± 0.00"}, {"measurement": "oxidative damage", "setting": "[4]; 64 μg/mL", "value": "1.50 ± 0.70"}, {"measurement": "oxidative damage", "setting": "[4]; 128 μg/mL", "value": "1.00 ± 1.41"}, {"measurement": "oxidative damage", "setting": "[4]; 3.6 mg/mL", "value": "2.00 ± 0.00"}, {"measurement": "oxidative damage", "setting": "[4]; 256 mg/mL", "value": "0.50 ± 0.70"}, {"measurement": "oxidative damage", "setting": "[4]; 500 mg/mL", "value": "2.50 ± 0.70"}, {"measurement": "percentage modulation of oxidative damage caused by the stressor H2O2", "setting": "[5]; all strains and concentrations tested", "value": "more than 60%"}, {"measurement": "induction of oxidative damage", "setting": "[5]; any concentration, any of the tested S. cerevisiae strains", "value": "did not induce oxidative damage"}, {"measurement": "hemolysis at 2 h, 31.25 μg/mL", "setting": "[6]; mouse erythrocyte suspension, pH 7.4, 31.25 μg/mL", "value": "3.66 ± 0.64", "unit": "%"}, {"measurement": "hemolysis at 2 h, 62.5 μg/mL", "setting": "[6]; mouse erythrocyte suspension, pH 7.4, 62.5 μg/mL", "value": "4.53 ± 0.06", "unit": "%"}, {"measurement": "hemolysis at 2 h, 250 μg/mL", "setting": "[6]; mouse erythrocyte suspension, pH 7.4, 250 μg/mL", "value": "5.64 ± 0.74", "unit": "%"}, {"measurement": "hemolysis at 2 h, 500 μg/mL", "setting": "[6]; mouse erythrocyte suspension, pH 7.4, 500 μg/mL", "value": "5.66 ± 0.56", "unit": "%"}, {"measurement": "hemolysis at 2 h, 125 μg/mL", "setting": "[6]; pH 7.4, 125 μg/mL", "value": "5.33 ± 0.75", "unit": "%"}, {"measurement": "cytotoxic effects in the hemolysis test", "setting": "mouse erythrocytes", "value": "did not exhibit significant cytotoxic effects"}, {"measurement": "oxidative damage", "setting": "[7]; 0.9 μg/mL", "value": "1.50 ± 0.70"}, {"measurement": "oxidative damage", "setting": "[7]; 1.8 μg/mL", "value": "1.00 ± 1.41"}, {"measurement": "oxidative damage", "setting": "[7]; 7.2 μg/mL", "value": "2.50 ± 0.70"}, {"measurement": "oxidative damage", "setting": "[7]; 14.4 μg/mL", "value": "2.00 ± 0.00"}, {"measurement": "oxidative damage", "setting": "[7]; 32 μg/mL", "value": "2.50 ± 0.70"}, {"measurement": "oxidative damage", "setting": "[7]; 64 μg/mL", "value": "3.50 ± 0.70"}, {"measurement": "oxidative damage", "setting": "[7]; 128 μg/mL", "value": "3.50 ± 0.70"}, {"measurement": "oxidative damage", "setting": "[7]; 3.6 mg/mL", "value": "2.00 ± 1.41"}, {"measurement": "oxidative damage", "setting": "[7]; 256 mg/mL", "value": "3.00 ± 1.41"}, {"measurement": "oxidative damage", "setting": "[7]; 500 mg/mL", "value": "2.50 ± 0.70"}, {"measurement": "cytotoxic effects in the A. Salina test", "setting": "Artemia salina; 31.25–500 μg/mL", "value": "did not exhibit significant cytotoxic effects"}, {"measurement": "concentration from which toxicity increased in a dose-dependent manner", "setting": "Artemia salina; 48 h of exposure", "value": 125, "unit": "µg/mL"}, {"measurement": "oxidative damage", "setting": "[8]; 0.9 μg/mL", "value": "2.50 ± 0.70"}, {"measurement": "oxidative damage", "setting": "[8]; 1.8 μg/mL", "value": "3.50 ± 0.70"}, {"measurement": "oxidative damage", "setting": "[8]; 7.2 μg/mL", "value": "4.00 ± 0.00"}, {"measurement": "oxidative damage", "setting": "[8]; 14.4 μg/mL", "value": "3.50 ± 0.70"}, {"measurement": "oxidative damage", "setting": "[8]; 32 μg/mL", "value": "3.50 ± 2.12"}, {"measurement": "oxidative damage", "setting": "[8]; 64 μg/mL", "value": "3.50 ± 0.70"}, {"measurement": "oxidative damage", "setting": "[8]; 128 μg/mL", "value": "3.50 ± 2.12"}, {"measurement": "oxidative damage", "setting": "[8]; 3.6 mg/mL", "value": "2.50 ± 0.70"}, {"measurement": "oxidative damage", "setting": "[8]; 256 mg/mL", "value": "2.50 ± 2.12"}, {"measurement": "oxidative damage", "setting": "[8]; 500 mg/mL", "value": "3.00 ± 1.41"}]}, {"compound": "OO", "note": "[H2O2, hydrogen peroxide, reference compound]", "values": [{"measurement": "oxidative damage", "setting": "[1]; 10 mM, positive control", "value": "22.25 ± 4.57^∗∗"}, {"measurement": "oxidative damage", "setting": "[2]; 10 mM, positive control", "value": "25.5 ± 4.2^∗∗"}, {"measurement": "oxidative damage", "setting": "[3]; 10 mM, positive control", "value": "25.25 ± 6.18^∗∗"}, {"measurement": "oxidative damage", "setting": "[4]; 10 mM, positive control", "value": "30.75 ± 5.0^∗∗"}, {"measurement": "oxidative damage", "setting": "[7]; 10 mM, positive control", "value": "27.00 ± 5.09^∗∗"}, {"measurement": "oxidative damage", "setting": "[8]; 10 mM, positive control", "value": "24.25 ± 4.03^∗∗"}]}]}
